Results published in patent US12108756B2, “Photodynamic method of inhibiting growth of a microbial plant pathogen” (priority 2019, dated 2024).

Columns and labels:
E. coli = E. coli kill with photosensitizers with and without copper under broad-spectrum Reptile Light; format: cell-based, Escherichia coli; details: for log reduction: Reptile Light 8,520 Lux (26 W/m2); for effectiveness as photosensitizer: as shown in Example 2, under the test conditions
Protocol: In this example we compare different photosensitizers (50 μM in water) in combination with and without copper sulfate. An agricultural adjuvant sticker spreader, Silwet® L-77 was also included at a 0.0125% concentration. The conditions experimental were the same as Example 1: E. coli as the test organism, using copper sulfate at 10 ppm, and a light exposure time of 30 minutes. However, in this test series we used a light source that reproduced the spectrum of sunlight, including UV. It is used to in terrariums for housing reptiles, some of which require a UV component in their light. It is referred to here as the Reptile Light (Zoo Med 2019).
In this example we also used the Reptile Light. In these tests the light intensity was 8,520 Lux, or 26 W/m2 (for comparison, this could be full daylight on a cloudy day, or a common light level in a greenhouse). […] Silwet (see Helena 2019) is an agricultural nonionic organosilicone surfactant adjuvant wetting and spreading agent commonly used with pesticides, also commonly known as a sticker spreader).
In this example we tested a commercial algicide product, Cutrine®, which contains copper ethanolamine (from the product label: Copper Ethanolamine Complex, Mixed (Mono CAS #14215-52-2 and Tri CAS #82027-59-6) 27.9%; OTHER INGREDIENTS 72.1% TOTAL 100.0% Metallic copper equivalent, 9%; Contains 0.909 lbs. of elemental copper per gallon) (EPA Reg. No. 8959-10). Copper ethanolamine is effective in keeping the copper salt in solution at neutral pH. The tests were done as above, under the reptile light for 30 minutes.
The above tests using CuSO4 at 10 ppm is equivalent to 3.98 ppm copper. We initially tested Cutrine® at a low and a high concentration, where the low concentration is adjusted to have approximately 3.98 ppm copper as before, and the high concentration is 39.8 ppm copper (same copper concentration as 100 ppm CuSO4). We tested them with and without 18 ppm riboflavin. Again, tests were run in triplicate.

[1] = test system: Escherichia coli (E. coli) bacteria (ATCC 25922); assay: Photodynamic treatment of E. coli under blue LED light; colonies plated and reduction vs untreated control; format: cell-based; details: for % reduction: converted from log kill
Protocol: Tests were carried out with Escherichia coli (E. coli) bacteria (ATCC 25922) in which the organisms were exposed to varying test conditions. The light source for photoactivation was a blue LED light (HIGROW 2019) that was placed 7 cm from the container containing the E. coli. The photoactivator was riboflavin (Aldrich R7649, lot VVXBB4048V, purity 98.6%) at a concentration of 18 ppm. Copper sulfate was used at a concentration of 10 ppm (aqueous solution). The tests included a wetting agent Silwet® L-77 at a concentration of 0.0125%. Silwet® L-77 is a product of Helena Agri-Enterprises, LLC of Collierville, TN, and is a nonionic organosilicone surfactant co-polymer that has enhanced wetting and spreading characteristics when used in aqueous sprays. Silwet® L-77 has a CAS Registry Number of 27306-78-1. Each test was carried out for the prescribed time, which varied from 5 minutes to 30 minutes. At the end of the exposure time the bacteria were diluted and plated so that the colonies could be enumerated and the corresponding reduction determined by comparison with the untreated control.
We also carried out tests to evaluate the effect of light intensity. These tests used 10 ppm copper sulfate and 18 ppm riboflavin (aqueous solution) in a 15-minute exposure under the blue light, using neutral density filters to decrease the light intensity. The full light intensity at the 450 nm to 460 nm range was 353 W/m^2.

[2] = test system: Xanthomonas hortorum pv. pelargonii; assay: Reduction of Xanthomonas hortorum pv. pelargonii leaf spots on geranium plants in greenhouse; format: in vivo; details: single spray 24 hours before inoculation, leaf spots counted two weeks after inoculation
[3] = 10 ppm + Silwet (0.0125%), 30 minutes
[4] = 10 ppm alone, blue light, 30 minutes
[5] = photosensitizer alone, 50 μM in water, Reptile Light, 30 minutes
[6] = photosensitizer alone, 50 μM in water, Reptile Light, 30 minutes, median (EY, RMP: average)
[7] = 18 ppm alone, blue light, 30 minutes

Row | Compound | log reduction (E. coli; [3]) [log] | effectiveness as photosensitizer (E. coli) | % kill (E. coli; [5]) [%] | Log kill (E. coli; [6]) [Log] | other results
1 | O=S(=O)([O-])[O-].[Cu+2] [copper sulfate] | 0.13 | – | – | – | % kill (E. coli; 10 ppm alone, reptile lamp, 30 minutes): 26.04%; Log kill (E. coli; 10 ppm alone, reptile lamp, 30 minutes, median value): 0.131 Log; log reduction (E. coli; 40 ppm, 30 minutes): 0.13 log; log kill [1, 4]: 0.954 log; % reduction [1, 4]: 88.88%; log kill ([1]; 10 ppm, in the dark, 30 minutes): 0.226 log
2 | O=C1OC2(c3ccccc31)c1cc(I)c(O)c(I)c1Oc1c2cc(I)c(O)c1I [ER, erythrosine] | – | effective | 25.88 | 0.13 | –
3 | O=C1OC2(c3cc(I)c(O)c(I)c3Oc3c2cc(I)c(O)c3I)c2c(Cl)c(Cl)c(Cl)c(Cl)c21 [RB, Rose Bengal] | – | effective | 30.81 | 0.16 | –
4 | Cc1cc2nc3c(=O)[nH]c(=O)nc-3n(C[C@H](O)[C@H](O)[C@H](O)CO)c2cc1C [riboflavin] | 0.15 | most effective | 23.26 | 0.115 | Log kill (E. coli; 18 ppm alone, reptile lamp, 30 minutes): 0.115 Log; log reduction (E. coli; 50 ppm, 1 hour): 1.6 log; log kill (E. coli; riboflavin alone, reptile light, 30 minutes, from previous test data): < 1 log; effectiveness against leaf spots [2]: only partially effective; log kill [1, 7]: 0.83 log; % reduction [1, 7]: 85.208%; log kill ([1]; 18 ppm, in the dark): did not produce any measurable kill
5 | Eosin Y [EY] | – | effective | 6.46 | 0.87 | –
6 | riboflavin monophosphate [RMP] | – | – | 3.17 | 0.042 | –
